Legend:
Assay type in all cases: functional, cell-based
Settings in all cases: Homo sapiens
HepG2 [1] = experiment: compound was tested in vitro for anti HBV activity in HepG2 2.2.15 cells
HepG2 [2] = experiment: The cytotoxicity against HepG2 2.2.15 cells expressed as IC50
HepG2 [3] = experiment: The cytotoxicity against 2.2.15 cells expressed as IC50
CCRF-CEM = experiment: The cytotoxicity against CEM cells

Row | EC50 (HepG2 [1]) [µM] | Compound | IC50 (HepG2 [2]) [µM] | IC50 (HepG2 [3]) [µM] | IC50 (CCRF-CEM) [µM]
1 | > 10 | OC[C@@H]1O[C@H](n2cnc3cncnc32)[C@H](F)[C@H]1O | > 200 | – | –
2 | > 10 | CN(C)c1ncnc2c1ncn2[C@H]1O[C@@H](CO)[C@H](O)[C@H]1F | > 200 | – | –
3 | > 10 | OC[C@H]1O[C@@H](n2cnc3c(NC4CC4)ncnc32)[C@H](F)[C@@H]1O | > 200 | – | –
4 | > 10 | CNc1ncnc2c1ncn2[C@H]1O[C@@H](CO)[C@H](O)[C@H]1F | > 200 | – | –
5 | > 10 | Nc1nc(Cl)nc2c1ncn2[C@@H]1O[C@H](CO)[C@@H](O)[C@H]1F | – | > 200 | –
6 | > 10 | Nc1nc(N)c2ncn([C@@H]3O[C@H](CO)[C@@H](O)[C@H]3F)c2n1 | – | > 180 | –
7 | 8 | OC[C@H]1O[C@@H](n2cnc3c(O)ncnc32)[C@H](F)[C@@H]1O | – | > 200 | > 100
8 | > 10 | OC[C@@H]1O[C@H](n2cnc3c(S)ncnc32)[C@H](F)[C@H]1O | – | > 200 | –
9 | 1.5 | Nc1ncnc2c1ncn2[C@@H]1O[C@H](CO)[C@@H](O)[C@H]1F [2'-BETA-FLUORO-2',3'-DEOXYADENOSINE] | > 200 | – | 90
10 | > 10 | Nc1nc(O)c2ncn([C@@H]3O[C@H](CO)[C@@H](O)[C@@H]3F)c2n1 [F-ARAG] | – | > 200 | > 100

From ChEMBL document CHEMBL1130211, “Synthesis and anti-hepatitis B virus activity of 9-(2-deoxy-2-fluoro-beta-L-arabinofuranosyl) purine nucleosides” (J Med Chem, 1997)
